Assays:
Experiment in all cases: Bliss excess, mean over the matrix (fraction); higher = more synergy
42-MG-BA (Glioblastoma) = test system: 42-MG-BA (Glioblastoma)
In short: (§1)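 After 24 hours at 37°C and 5% CO2 in 1536-well plates, cells in DMEM/F12 or RPMI plus 10% FBS received two-drug dose matrices for 72 hours. Viability came from CellTiter-Glo 2.0 luminescence and was scaled as inhibition, anchored at 0 by vehicle wells and at 1 by blank wells. Combination Emax is taken as the second-highest inhibition in the matrix, and Bliss excess as the observed combination effect less EA + EB − EA·EB, with EA and EB the single-agent effects.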

[1] = test system: B-CPAP (Thyroid Gland Carcinoma)
In short: as §1

[2] = test system: CAL-148 (Breast Carcinoma)
In short: as §1

[3] = test system: Calu-3 (Lung Adenocarcinoma)
In short: as §1

[4] = test system: DEL (T-Cell Non-Hodgkin's Lymphoma)
In short: as §1

[5] = test system: DoTc2-4510 (Cervical Carcinoma)
In short: as §1

ES4 (Ewing's Sarcoma) = test system: ES4 (Ewing's Sarcoma)
In short: as §1

[6] = test system: HCC1806 (Breast Carcinoma)
In short: as §1

[7] = test system: HO-1-N-1 (Oral Cavity Carcinoma)
In short: as §1

[8] = test system: Hs-578-T (Breast Carcinoma)
In short: as §1

[9] = test system: KURAMOCHI (Ovarian Carcinoma)
In short: as §1

[10] = test system: KYSE-520 (Esophageal Squamous Cell Carcinoma)
In short: as §1

[11] = test system: LNCaP-Clone-FGC (Prostate Carcinoma)
In short: as §1

[12] = test system: LS-180 (Colorectal Carcinoma)
In short: as §1

[13] = test system: ME-1 (Acute Myeloid Leukemia)
In short: as §1

[14] = test system: NCI-H82 (Small Cell Lung Carcinoma)
In short: as §1

[15] = test system: RO82-W-1 (Thyroid Gland Carcinoma)
In short: as §1

[16] = test system: Ramos-2G6-4C10 (Burkitt's Lymphoma)
In short: as §1

[17] = test system: TCCSUP (Bladder Carcinoma)
In short: as §1

[18] = test system: UM-UC-3 (Bladder Carcinoma)
In short: as §1

Row | Compound | Bliss excess (42-MG-BA (Glioblastoma)) | Bliss excess [1] | Bliss excess [2] | Bliss excess [3] | Bliss excess [4] | Bliss excess [5] | Bliss excess (ES4 (Ewing's Sarcoma)) | Bliss excess [6] | Bliss excess [7] | Bliss excess [8] | Bliss excess [9] | Bliss excess [10] | Bliss excess [11] | Bliss excess [12] | Bliss excess [13] | Bliss excess [14] | Bliss excess [15] | Bliss excess [16] | Bliss excess [17] | Bliss excess [18]
1 | COc1nnc2ccc(N3CCC(c4ccc(OCCN5CCN(C)C(=O)[C@H]5C)cc4)CC3)nn12 [AZD5153] + C[C@@H]1COCCN1C2=NC(=NC(=C2)C3(CC3)[S@](=N)(=O)C)C4=C5C=CNC5=NC=C4 [AZD6738] (first compound max 1 µM, 7x7, partner max 10 µM) | -0.0155 | 0.0219 | 0.0315 | 0.0066 | 0.0007 | 0.0412 | 0.0104 | 0.0113 | 0.01 | -0.0231 | 0.0157 | -0.0009 | -0.0318 | -0.0165 | -0.0693 | -0.0906 | 0.0259 | -0.0534 | -0.0327 | 0.0647
2 | COc1nnc2ccc(N3CCC(c4ccc(OCCN5CCN(C)C(=O)[C@H]5C)cc4)CC3)nn12 [AZD5153] + Cc1c2c(nn1C)CSCc1cc(n(C)n1)CSc1cc(c3ccccc3c1)OCCCc1c(C(=O)O)n(C)c3c-2c(Cl)ccc13 [AZD5991] (first compound max 1 µM, 7x7, partner max 1 µM) | 0.0576 | -0.0224 | 0.0117 | -0.0288 | -0.0475 | -0.0358 | -0.0665 | -0.0137 | 0.0068 | -0.0338 | 0.0332 | -0.0457 | -0.0722 | -0.0279 | -0.0162 | -0.0659 | -0.0181 | 0.0407 | -0.0234 | 0.0031
3 | COc1nnc2ccc(N3CCC(c4ccc(OCCN5CCN(C)C(=O)[C@H]5C)cc4)CC3)nn12 [AZD5153] + Cn1cnc2c(F)c(Nc3ccc(Br)cc3Cl)c(C(=O)NOCCO)cc21 [Selumetinib] (first compound max 1 µM, 7x7, partner max 10 µM) | -0.0245 | -0.0435 | 0.0129 | 0.0229 | -0.0896 | -0.0002 | -0.0697 | -0.0233 | 0.0226 | -0.0344 | -0.0242 | 0.0018 | -0.0583 | -0.0284 | -0.0302 | -0.0771 | 0.038 | -0.0465 | -0.0264 | 0.113
4 | Cc1c2c(nn1C)CSCc1cc(n(C)n1)CSc1cc(c3ccccc3c1)OCCCc1c(C(=O)O)n(C)c3c-2c(Cl)ccc13 [AZD5991] + C1CN(CCC1(C(=O)N[C@@H](CCO)C2=CC=C(C=C2)Cl)N)C3=NC=NC4=C3C=CN4 [Capivasertib] (first compound max 1 µM, 7x7, partner max 3 µM) | -0.0442 | -0.0249 | 0.0486 | 0.0134 | -0.012 | 0.0544 | 0.0162 | 0.0085 | 0.0001 | -0.0866 | 0.0205 | -0.0068 | -0.043 | 0.0195 | 0.0415 | -0.008 | -0.016 | 0.0094 | 0.0229 | -0.0231
5 | Cc1c2c(nn1C)CSCc1cc(n(C)n1)CSc1cc(c3ccccc3c1)OCCCc1c(C(=O)O)n(C)c3c-2c(Cl)ccc13 [AZD5991] + C=CCn1c(=O)c2cnc(Nc3ccc(N4CCN(C)CC4)cc3)nc2n1-c1cccc(C(C)(C)O)n1 [AZD1775] (first compound max 1 µM, partner max 1 µM) | 0.0071 | -0.053 | 0.0567 | 0.0194 | -0.0201 | -0.0399 | 0.0578 | 0.0493 | -0.0348 | -0.0244 | -0.0346 | 0.0434 | 0.0118 | 0.0495 | 0.041 | -0.0532 | -0.0197 | -0.0413 | -0.0021 | -0.0077
6 | Cc1c2c(nn1C)CSCc1cc(n(C)n1)CSc1cc(c3ccccc3c1)OCCCc1c(C(=O)O)n(C)c3c-2c(Cl)ccc13 [AZD5991] + CC1(C)CCC(CN2CCN(c3ccc(C(=O)NS(=O)(=O)c4ccc(NCC5CCOCC5)c([N+](=O)[O-])c4)c(Oc4cnc5[nH]ccc5c4)c3)CC2)=C(c2ccc(Cl)cc2)C1 [Venetoclax] (first compound max 1 µM, 7x7, partner max 1 µM) | -0.025 | -0.0306 | -0.0177 | 0.0015 | 0.0081 | 0.0024 | -0.0286 | -0.0299 | 0.0055 | -0.0513 | 0.0511 | -0.0306 | -0.0476 | 0.0019 | 0.0654 | -0.036 | -0.0523 | 0.0339 | -0.0662 | -0.0062
7 | Cc1c2c(nn1C)CSCc1cc(n(C)n1)CSc1cc(c3ccccc3c1)OCCCc1c(C(=O)O)n(C)c3c-2c(Cl)ccc13 [AZD5991] + CCN(CCO)CCCOc1ccc2c(Nc3cc(CC(=O)Nc4cccc(F)c4)[nH]n3)ncnc2c1 [AZD2811] (first compound max 1 µM, 7x7, partner max 1 µM) | 0.0282 | 0.0082 | 0.0597 | -0.0024 | -0.0295 | 0.0509 | 0.0003 | 0.0297 | 0.0237 | 0.0487 | -0.0046 | -0.0272 | 0.0567 | 0.0652 | 0.0139 | 0.103 | -0.0642 | 0.141 | -0.0288 | 0.0296
8 | Cc1c2c(nn1C)CSCc1cc(n(C)n1)CSc1cc(c3ccccc3c1)OCCCc1c(C(=O)O)n(C)c3c-2c(Cl)ccc13 [AZD5991] + CN(C)CCCOc1ccc(-c2ccc3ncc4c(c3c2)n(C2CCOCC2)c(=O)n4C)cn1 [AZD0156] (first compound max 1 µM, 7x7, partner max 1 µM) | 0.0259 | 0.0094 | 0.0528 | 0.0066 | -0.0174 | 0.0422 | 0.0042 | 0.0346 | -0.0044 | 0.0816 | -0.0666 | 0.0045 | -0.0275 | 0.0054 | 0.0237 | -0.0207 | 0.0257 | 0.0226 | -0.0332 | -0.0084
9 | Cc1c2c(nn1C)CSCc1cc(n(C)n1)CSc1cc(c3ccccc3c1)OCCCc1c(C(=O)O)n(C)c3c-2c(Cl)ccc13 [AZD5991] + C[C@@H]1COCCN1C2=NC(=NC(=C2)C3(CC3)[S@](=N)(=O)C)C4=C5C=CNC5=NC=C4 [AZD6738] (first compound max 1 µM, 7x7, partner max 10 µM) | 0.041 | 0.0032 | 0.0584 | 0.0119 | 0.004 | -0.0327 | -0.0118 | 0.0218 | -0.0134 | -0.0254 | 0.0587 | 0.0162 | 0.0123 | 0.0196 | 0.0454 | -0.0218 | -0.0303 | 0.0097 | 0.0241 | 0.0159
10 | Cc1c2c(nn1C)CSCc1cc(n(C)n1)CSc1cc(c3ccccc3c1)OCCCc1c(C(=O)O)n(C)c3c-2c(Cl)ccc13 [AZD5991] + C[C@@H](Nc1cc(F)cc(F)c1)c1cc(C(=O)N(C)C)cc2c(=O)cc(N3CCOCC3)oc12 [AZD8186] (first compound max 1 µM, 7x7, partner max 3 µM) | -0.0084 | -0.0409 | -0.0338 | 0.0441 | 0.0058 | 0.0486 | -0.0286 | 0.0026 | 0.0943 | -0.126 | 0.039 | -0.0258 | -0.0234 | -0.0189 | -0.037 | -0.0121 | 0.0066 | -0.0074 | 0.0237 | 0.0098
11 | Cc1c2c(nn1C)CSCc1cc(n(C)n1)CSc1cc(c3ccccc3c1)OCCCc1c(C(=O)O)n(C)c3c-2c(Cl)ccc13 [AZD5991] + Cn1cnc2c(F)c(Nc3ccc(Br)cc3Cl)c(C(=O)NOCCO)cc21 [Selumetinib] (first compound max 1 µM, 7x7, partner max 3 µM) | -0.03 | -0.0219 | 0.0184 | -0.015 | 0.0049 | 0.0343 | -0.0173 | 0.0254 | 0.0303 | -0.0568 | 0.031 | -0.0208 | -0.0301 | 0.0454 | 0.162 | -0.0406 | -0.0528 | -0.0074 | -0.0066 | 0.0332
12 | C[C@@H]1COCCN1c1cc(C2([S@](C)(=N)=O)CC2)nc(-c2ccnc3[nH]ccc23)n1 [AZD6738] + O=C(c1cc(Cc2n[nH]c(=O)c3ccccc23)ccc1F)N1CCN(C(=O)C2CC2)CC1 [Olaparib] (first compound max 10 µM, 7x7, partner max 10 µM) | 0.0142 | 0.0364 | 0.0123 | 0.0139 | 0.0399 | 0.0652 | 0.0608 | 0.0103 | -0.0196 | -0.0002 | -0.0208 | -0.0402 | -0.0297 | 0.0208 | -0.0056 | -0.0194 | -0.098 | -0.0881 | 0.067 | 0.0829
13 | Cc1cc2ncnn2cc1Nc1ncc2c(n1)n(C1CCOCC1)c(=O)n2C [AZD7648] + C=CCn1c(=O)c2cnc(Nc3ccc(N4CCN(C)CC4)cc3)nc2n1-c1cccc(C(C)(C)O)n1 [AZD1775] (first compound max 10 µM, partner max 1 µM) | -0.052 | -0.0273 | 0.0051 | -0.0073 | 0.023 | -0.0004 | 0.0337 | 0.0373 | 0.0444 | -0.121 | -0.0501 | 0.0058 | -0.0273 | -0.0272 | 0.0321 | -0.0429 | 0.131 | 0.0005 | -0.0109 | 0.0279
14 | Cc1cc2ncnn2cc1Nc1ncc2c(n1)n(C1CCOCC1)c(=O)n2C [AZD7648] + CCN(CCO)CCCOc1ccc2c(Nc3cc(CC(=O)Nc4cccc(F)c4)[nH]n3)ncnc2c1 [AZD2811] (first compound max 10 µM, 7x7, partner max 1 µM) | 0.0312 | -0.0264 | -0.0213 | 0.002 | 0.0547 | -0.0115 | 0.0076 | 0.071 | 0.0478 | -0.0561 | 0.0084 | 0.0138 | -0.003 | 0.0165 | 0.0036 | 0.0981 | -0.115 | 0.188 | 0.0258 | 0.001

— the supplement of paper PMC11061612
